According to ChEMBL document CHEMBL3046425, “Synthesis of Antifungal 2-Anilino-4-phenylthiazoles and Their Inhibitory Activities on Sterol Biosynthesis” (J Pestic Sci, 2001):
≈ marks a conversion by molar mass, not a printed value.

What was measured:
[1] = tested on: Pyricularia oryzae; experiment: Antifungal activity against Magnaporthe oryzae; assay type: functional, organism-based
[2] = tested on: Trichophyton mentagrophytes; experiment: Antifungal activity against Trichophyton mentagrophytes; assay type: functional
[3] = tested on: Botrytis cinerea; experiment: Antifungal activity against Botryotinia fuckeliana; assay type: functional, organism-based
[4] = tested on: Botrytis cinerea; experiment: Antifungal activity against Botryotinia fuckeliana assessed as accumulation of squalene using [2-14C]acetate at 3 x 10^-5 M; assay type: functional
[5] = tested on: Botrytis cinerea; experiment: Antifungal activity against Botryotinia fuckeliana assessed as accumulation of squalene using [2-14C]acetate at 1 x 10^-5 M; assay type: functional
[6] = tested on: Trichophyton mentagrophytes; experiment: Antifungal activity against Trichophyton mentagrophytes assessed as accumulation of squalene using [2-14C]acetate at 1 x 10^-9 M; assay type: functional
[7] = tested on: Botrytis cinerea; experiment: Antifungal activity against Botryotinia fuckeliana assessed as accumulation of squalene using [2-14C]acetate at 1 x 10^-6 M; assay type: functional
[8] = tested on: Botrytis cinerea; experiment: Antifungal activity against Botryotinia fuckeliana assessed as accumulation of squalene using [2-14C]acetate at 1 x 10^-7 M; assay type: functional
[9] = tested on: Trichophyton mentagrophytes; experiment: Antifungal activity against Trichophyton mentagrophytes assessed as accumulation of squalene using [2-14C]acetate at 1 x 10^-7 M; assay type: functional
[10] = tested on: Trichophyton mentagrophytes; experiment: Antifungal activity against Trichophyton mentagrophytes assessed as accumulation of squalene using [2-14C]acetate at 1 x 10^-8 M; assay type: functional
[11] = biological target: T1, Squalene epoxidase ERG1 (Saccharomyces cerevisiae S288c) (UniProt P32476); experiment: Inhibition of squalene epoxidase in Saccharomyces cerevisiae IFO 1346 assessed as incorporation of [2-14C]mevalonate into 4alpha-methyl sterols at 1 x 10^-5 M after 3 hr; set-up: scale not given: the % may be the effect or the level left
T1 sequence (whole entry): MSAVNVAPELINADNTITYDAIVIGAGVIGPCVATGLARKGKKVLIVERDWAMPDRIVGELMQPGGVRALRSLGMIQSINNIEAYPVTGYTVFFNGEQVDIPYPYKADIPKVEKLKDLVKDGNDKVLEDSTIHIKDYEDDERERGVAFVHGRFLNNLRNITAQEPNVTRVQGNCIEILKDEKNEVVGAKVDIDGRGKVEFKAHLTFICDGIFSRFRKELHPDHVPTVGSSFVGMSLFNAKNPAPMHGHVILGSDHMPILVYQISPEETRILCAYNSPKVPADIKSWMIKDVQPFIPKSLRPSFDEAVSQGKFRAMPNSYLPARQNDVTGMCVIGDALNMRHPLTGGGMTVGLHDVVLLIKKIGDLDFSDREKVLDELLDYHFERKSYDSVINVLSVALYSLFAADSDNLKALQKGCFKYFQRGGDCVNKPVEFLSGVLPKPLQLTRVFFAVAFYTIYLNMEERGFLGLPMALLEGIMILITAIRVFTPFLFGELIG

[12] = biological target: T1, Squalene epoxidase ERG1 (Saccharomyces cerevisiae S288c); experiment: Inhibition of squalene epoxidase in Saccharomyces cerevisiae IFO 1346 assessed as incorporation of [2-14C]mevalonate into 4,4-dimethyl sterols at 1 x 10^-5 M after 3 hr; set-up: scale not given: the % may be the effect or the level left
[13] = biological target: T1, Squalene epoxidase ERG1 (Saccharomyces cerevisiae S288c); experiment: Inhibition of squalene epoxidase in Saccharomyces cerevisiae IFO 1346 assessed as incorporation of [2-14C]mevalonate into 2,3-oxidosqualene at 1 x 10^-5 M after 3 hr; set-up: scale not given: the % may be the effect or the level left
[14] = biological target: T1, Squalene epoxidase ERG1 (Saccharomyces cerevisiae S288c); experiment: Inhibition of squalene epoxidase in Saccharomyces cerevisiae IFO 1346 assessed as incorporation of [2-14C]mevalonate into squalene at 1 x 10^-5 M after 3 hr; set-up: scale not given: the % may be the effect or the level left
[15] = biological target: T1, Squalene epoxidase ERG1 (Saccharomyces cerevisiae S288c); experiment: Inhibition of squalene epoxidase in Saccharomyces cerevisiae IFO 1346 assessed as incorporation of [2-14C]mevalonate into 4-desmethyl sterols at 1 x 10^-5 M after 3 hr; set-up: scale not given: the % may be the effect or the level left

Clc1ccc(Nc2nc(-c3cccc(Cl)c3Cl)cs2)cc1
EC50 [1]: > 100 µg/mL
MIC [2]: 3 µg/mL (≈ 8.43 µM)
EC50 [3]: > 100 µg/mL

CN(C)c1ccc(Nc2nc(-c3c(Cl)cccc3Cl)cs2)cc1
EC50 [1]: > 100 µg/mL
MIC [2]: 1 µg/mL (≈ 2.74 µM)
EC50 [3]: > 100 µg/mL

Cc1cccc(C)c1-c1csc(Nc2ccc(Cl)cc2)n1
EC50 [1]: 10 µg/mL (≈ 31.8 µM)
MIC [2]: 0.1 µg/mL (≈ 0.318 µM)
EC50 [3]: 0.05 µg/mL (≈ 0.159 µM)

CC(C)(C)c1ccc(Nc2nc(-c3c(Cl)cccc3Cl)cs2)cc1
EC50 [1]: 1 µg/mL (≈ 2.65 µM)
MIC [2]: > 100 µg/mL
EC50 [3]: > 100 µg/mL

Clc1ccc(Nc2nc(-c3ccccc3Cl)cs2)cc1
EC50 [1]: 0.3 µg/mL (≈ 0.934 µM)
Activity [4]: 46.3%
Activity [5]: 28.8%
MIC [2]: 0.3 µg/mL (≈ 0.934 µM)
EC50 [3]: > 100 µg/mL

Clc1cccc(Nc2nc(-c3c(Cl)cccc3Cl)cs2)c1
EC50 [1]: 10 µg/mL (≈ 28.1 µM)
Activity [5]: 4%
MIC [2]: 0.1 µg/mL (≈ 0.281 µM)
EC50 [3]: > 100 µg/mL

FC(F)(F)Oc1ccc(Nc2nc(-c3c(Cl)cccc3Cl)cs2)cc1
EC50 [1]: 0.3 µg/mL (≈ 0.74 µM)
MIC [2]: 0.03 µg/mL (≈ 0.074 µM)
EC50 [3]: 0.5 µg/mL (≈ 1.23 µM)

Fc1cc(Cl)ccc1Nc1nc(-c2c(Cl)cccc2Cl)cs1
EC50 [1]: 0.5 µg/mL (≈ 1.34 µM)
MIC [2]: 0.1 µg/mL (≈ 0.268 µM)
EC50 [3]: 0.1 µg/mL (≈ 0.268 µM)

CCCc1ccc(Nc2nc(-c3c(Cl)cccc3Cl)cs2)cc1
EC50 [1]: 30 µg/mL (≈ 82.6 µM)
MIC [2]: 0.1 µg/mL (≈ 0.275 µM)
EC50 [3]: > 100 µg/mL

COc1cccc(OC)c1-c1csc(Nc2ccc(Cl)cc2)n1
Activity [6]: 30.5%
EC50 [1]: 5 µg/mL (≈ 14.4 µM)
Activity [5]: 79.8%
Activity [7]: 46.9%
Activity [8]: 2.3%
Activity [9]: 84.1%
Activity [10]: 70.6%
MIC [2]: 0.03 µg/mL (≈ 0.0865 µM)
EC50 [3]: 0.2 µg/mL (≈ 0.577 µM)

CCCOC/C(=N\c1ccc(Cl)cc1C(F)(F)F)n1ccnc1
Activity [11]: 10.3%
Activity [12]: 54%
Activity [13]: 2.9%
Activity [14]: 19.3%
Activity [15]: 12.6%

COc1ccc(Nc2nc(-c3c(Cl)cccc3Cl)cs2)cc1
EC50 [1]: 10 µg/mL (≈ 28.5 µM)
MIC [2]: 0.1 µg/mL (≈ 0.285 µM)
EC50 [3]: > 100 µg/mL

Clc1ccc(Nc2nc(-c3ccc(Cl)cc3)cs2)cc1
EC50 [1]: 0.3 µg/mL (≈ 0.934 µM)
Activity [4]: 8.4%
MIC [2]: > 100 µg/mL
EC50 [3]: > 100 µg/mL

CC(C)c1ccc(Nc2nc(-c3c(Cl)cccc3Cl)cs2)cc1
EC50 [1]: 2 µg/mL (≈ 5.5 µM)
MIC [2]: 0.3 µg/mL (≈ 0.826 µM)
EC50 [3]: > 100 µg/mL

Clc1ccc(Nc2nc(-c3c(Cl)cccc3Cl)cs2)cc1Cl
EC50 [1]: 1 µg/mL (≈ 2.56 µM)
MIC [2]: 0.1 µg/mL (≈ 0.256 µM)
EC50 [3]: 1 µg/mL (≈ 2.56 µM)

Fc1ccc(Nc2nc(-c3c(Cl)cccc3Cl)cs2)cc1
EC50 [1]: 3 µg/mL (≈ 8.84 µM)
MIC [2]: 0.1 µg/mL (≈ 0.295 µM)
EC50 [3]: 0.2 µg/mL (≈ 0.59 µM)

FC(F)(F)c1ccc(Nc2nc(-c3c(Cl)cccc3Cl)cs2)cc1
EC50 [1]: 0.3 µg/mL (≈ 0.771 µM)
MIC [2]: 0.03 µg/mL (≈ 0.0771 µM)
EC50 [3]: 0.3 µg/mL (≈ 0.771 µM)

C[S+]([O-])c1ccc(Nc2nc(-c3c(Cl)cccc3Cl)cs2)cc1 (centres undefined)
EC50 [1]: 2 µg/mL (≈ 5.22 µM)
MIC [2]: 30 µg/mL (≈ 78.3 µM)
EC50 [3]: > 100 µg/mL

Cc1cccc(N(C)C(=S)Oc2ccc3ccccc3c2)c1 [TOLNAFTATE]
Activity [6]: 74.2%
Activity [11]: 1.2%
Activity [12]: 1.9%
Activity [13]: 3.5%
Activity [14]: 49%
Activity [5]: 79%
Activity [7]: 66%
Activity [8]: 10%
Activity [9]: 81.5%
Activity [10]: 72.1%
Activity [15]: 43.6%

Fc1cccc(F)c1-c1csc(Nc2ccc(Cl)cc2)n1
EC50 [1]: 1 µg/mL (≈ 3.1 µM)
MIC [2]: 0.3 µg/mL (≈ 0.929 µM)
EC50 [3]: > 100 µg/mL

Clc1ccc(Nc2nc(-c3c(Cl)cccc3Cl)ns2)cc1
EC50 [1]: 0.6 µg/mL (≈ 1.68 µM)
MIC [2]: 0.1 µg/mL (≈ 0.28 µM)
EC50 [3]: 0.2 µg/mL (≈ 0.561 µM)

Clc1ccc(Nc2nc(-c3ccc4ccccc4c3)cs2)cc1
Activity [6]: >35%
EC50 [1]: > 100 µg/mL
Activity [9]: 38.7%
MIC [2]: > 100 µg/mL
EC50 [3]: > 100 µg/mL

Cc1ccc(Nc2nc(-c3c(Cl)cccc3Cl)cs2)cc1
EC50 [1]: 3 µg/mL (≈ 8.95 µM)
MIC [2]: 0.1 µg/mL (≈ 0.298 µM)
EC50 [3]: 0.3 µg/mL (≈ 0.895 µM)

COc1ccc(Br)c(OC)c1-c1csc(Nc2ccc(Cl)cc2)n1
EC50 [1]: 0.5 µg/mL (≈ 1.17 µM)
MIC [2]: 3 µg/mL (≈ 7.05 µM)
EC50 [3]: > 100 µg/mL

CS(=O)(=O)c1ccc(Nc2nc(-c3c(Cl)cccc3Cl)cs2)cc1
EC50 [1]: 3 µg/mL (≈ 7.51 µM)
MIC [2]: 3 µg/mL (≈ 7.51 µM)
EC50 [3]: > 100 µg/mL

Clc1cccc(Cl)c1-c1csc(Nc2ccccc2)n1
EC50 [1]: 2 µg/mL (≈ 6.23 µM)
MIC [2]: 1 µg/mL (≈ 3.11 µM)
EC50 [3]: > 100 µg/mL

Clc1ccc(Cc2nc(-c3c(Cl)cccc3Cl)cs2)cc1
EC50 [1]: > 100 µg/mL
Activity [5]: 3.8%
MIC [2]: > 100 µg/mL
EC50 [3]: > 100 µg/mL

Clc1cccc(Cl)c1-c1csc(Nc2ccc(I)cc2)n1
EC50 [1]: 0.3 µg/mL (≈ 0.671 µM)
MIC [2]: 0.03 µg/mL (≈ 0.0671 µM)
EC50 [3]: 0.2 µg/mL (≈ 0.447 µM)

Clc1ccc(Nc2nc(-c3cccc(Cl)c3)cs2)cc1
EC50 [1]: 0.3 µg/mL (≈ 0.934 µM)
Activity [4]: 1.7%
MIC [2]: 3 µg/mL (≈ 9.34 µM)
EC50 [3]: > 100 µg/mL

CC(C)Oc1ccc(Nc2nc(-c3c(Cl)cccc3Cl)cs2)cc1
EC50 [1]: 3 µg/mL (≈ 7.91 µM)
MIC [2]: 30 µg/mL (≈ 79.1 µM)
EC50 [3]: > 100 µg/mL

CSc1ccc(Nc2nc(-c3c(Cl)cccc3Cl)cs2)cc1
EC50 [1]: 4 µg/mL (≈ 10.9 µM)
MIC [2]: 0.1 µg/mL (≈ 0.272 µM)
EC50 [3]: 0.3 µg/mL (≈ 0.817 µM)

Clc1ccc(Nc2nc(-c3c(Cl)cc(Cl)cc3Cl)cs2)cc1
EC50 [1]: 0.3 µg/mL (≈ 0.769 µM)
MIC [2]: 0.1 µg/mL (≈ 0.256 µM)
EC50 [3]: 0.05 µg/mL (≈ 0.128 µM)

CN(c1ccc(Cl)cc1)c1nc(-c2c(Cl)cccc2Cl)cs1
EC50 [1]: 1 µg/mL (≈ 2.7 µM)
Activity [4]: 2%
MIC [2]: 3 µg/mL (≈ 8.11 µM)
EC50 [3]: > 100 µg/mL

Clc1ccc(Nc2nc(-c3cccc4ccccc34)cs2)cc1
Activity [6]: 25.3%
EC50 [1]: 2 µg/mL (≈ 5.94 µM)
Activity [9]: 83.1%
Activity [10]: 11.7%
MIC [2]: 0.1 µg/mL (≈ 0.297 µM)
EC50 [3]: 0.3 µg/mL (≈ 0.891 µM)

Clc1ccc(Nc2nc(-c3ccccc3)cs2)cc1
EC50 [1]: 1 µg/mL (≈ 3.49 µM)
Activity [4]: 14.3%
Activity [5]: 2%
MIC [2]: 3 µg/mL (≈ 10.5 µM)
EC50 [3]: > 100 µg/mL

Clc1ccc(Oc2nc(-c3c(Cl)cccc3Cl)cs2)cc1
EC50 [1]: 1 µg/mL (≈ 2.8 µM)
Activity [4]: 68%
Activity [5]: 61.1%
MIC [2]: 1 µg/mL (≈ 2.8 µM)
EC50 [3]: 0.5 µg/mL (≈ 1.4 µM)

Clc1ccc(Nc2nc(-c3c(Cl)cccc3Cl)cs2)c(Cl)c1
EC50 [1]: 5 µg/mL (≈ 12.8 µM)
MIC [2]: 0.3 µg/mL (≈ 0.769 µM)
EC50 [3]: > 100 µg/mL

Clc1cccc(Cl)c1-c1csc(Nc2ccc(Br)cc2)n1
EC50 [1]: 0.5 µg/mL (≈ 1.25 µM)
MIC [2]: 0.03 µg/mL (≈ 0.075 µM)
EC50 [3]: 0.05 µg/mL (≈ 0.125 µM)

O=[N+]([O-])c1ccc(Nc2nc(-c3c(Cl)cccc3Cl)cs2)cc1
EC50 [1]: > 100 µg/mL
MIC [2]: 30 µg/mL (≈ 81.9 µM)
EC50 [3]: > 100 µg/mL
